What all share (experiment): growth of human tumour cells (NCI), 48 h
Assay [1] concerns A549 NSCLC.
Assay [2] has as its system CAKI-1 renal.
In assay [3] the test system is HCT-15 colon.
For assay [4], the system named is HS 578T breast.
The test system of assay [5] is HT29 colon.
Assay [6] deals with MDA-MB-435.
In assay [7] the test system is MDA-N.
The subject of assay [8] is OVCAR-4 ovarian.
Assay [9] has as its system OVCAR-5 ovarian.
Assay [10] concerns OVCAR-8 ovarian.
Assay [11] has as its system SF-295 CNS.
The subject of assay [12] is SR leukemia.
For assay [13], the system named is UO-31 renal.
For assay [14], the system named is HCC-2998 colon.
The subject of assay [15] is SN12C renal.

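How tested: cells in 96-well plates exposed to compound for 48 hours at five concentrations. Definition used: TGI = concentration required for complete inhibition of growth.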

For 20 compounds, TGI results are on record in PubChem BioAssay (NCI).

Regarding `Cc1[nH]n(C2=NCCN2)c(=O)c1Cc1ccccc1`, the TGI in assay [1], in assay [2], in assay [3], in [4], in assay [5] and in [6] was more than 100 µM each time. Moreover, the TGI in assay [7], in assay [8], in assay [9], in assay [10], in [11] and in [12] was more than 100 µM each time. In assay [13], this compound yielded a TGI of more than 100 µM.
For the compound `Cc1nn(C(=O)Cc2ccccc2)c2c1C(c1ccc(N(C)C)cc1)SC(N)=N2` (centres undefined), the TGI in [1], in assay [2], in [14], in assay [3], in [4] and in [5] was more than 100 µM throughout. The TGI in assay [6], in assay [7], in [10], in assay [11], in assay [15] and in assay [12] was more than 100 µM each time. Besides, the TGI in assay [13] is more than 100 µM.
As for `COc1cc(/C=C2\N=C(c3ccccc3)N(c3nc4c(OC)ccc(OC)c4s3)C2=O)ccc1O`, the TGI in assay [1], in assay [2], in assay [14], in assay [3], in [4] and in [5] was more than 100 µM each time. Further, the TGI in assay [6] is 50.7 µM; in [7], 62 µM; in assay [9] it was more than 100 µM; in [10], more than 100 µM; in [11], more than 100 µM; in assay [15], more than 100 µM. In addition, the TGI in [12] and in assay [13] was more than 100 µM in each case.
As to `c1csc(-c2cc(-c3cccs3)c(-c3ccsc3)s2)c1`, the TGI in assay [1], in assay [2], in [14], in [3], in assay [4] and in assay [5] was more than 100 µM in each case. In addition, the TGI in assay [6], in assay [7], in assay [8], in assay [10], in assay [11] and in assay [15] was more than 100 µM throughout. The TGI in assay [12] and in [13] was more than 100 µM throughout.
As to `Cc1ccc(C)c(COCCOCn2ccc(N)nc2=O)c1`, the TGI in [1], in [2], in assay [14], in [3], in assay [4] and in [6] was more than 100 µM in each case. The TGI in assay [7], in assay [9], in assay [10], in assay [11], in assay [15] and in [12] was more than 100 µM throughout. This compound gave a TGI in assay [13] of more than 100 µM.
Turning to `CN1C2CCC1CC(CCNC(c1ccccc1)c1ccccc1)C2` (centres undefined), the TGI in assay [1] is more than 100 µM; in assay [2] it was more than 100 µM; in assay [3], more than 100 µM; in assay [4], more than 100 µM; in assay [5], more than 100 µM; in assay [6] it was 21.4 µM. Also, the TGI in assay [7] is 30.6 µM; in assay [8] it was more than 100 µM; in assay [9], more than 100 µM; in assay [10], more than 100 µM; in assay [11], 49 µM; in assay [15] it was more than 100 µM. In addition, the values for the TGI in assay [12] and in [13] were 40.3 µM and 56.5 µM, respectively.
With `COC(=O)C(NC(=O)c1ccccc1)c1ccco1` (centres undefined), the TGI in [1], in assay [14], in [3], in [4], in assay [5] and in [6] was more than 100 µM throughout. The TGI in assay [7], in assay [9], in assay [10], in assay [11], in [15] and in assay [12] was more than 100 µM in each case. This compound had a TGI in [13] of more than 100 µM.
Consider `CC(C)=CC(=O)C[C@H]1C(=O)O[C@@H]2C[C@H]3C(C)=CC(=O)[C@@H](O)[C@]3(C)[C@H]3[C@@]4(O)OC[C@]32[C@@H]1[C@@H](C)[C@H]4O`, for which the TGI is more than 50.2 µM in assay [2]; 0.368 µM in assay [14]; 0.907 µM in [3]; 0.258 µM in assay [4]; 0.305 µM in assay [6]; 0.329 µM in assay [7]. For the same compound, the TGI in assay [8] was 1.05 µM; in assay [10] it was 0.283 µM; in assay [11] it was 0.152 µM; in assay [12], more than 100 µM.
Take `CCOC(=O)C1(C(=O)OCC)C[C@H](C)[C@](C)(O)C1`: the TGI in [1], in [2], in assay [3], in assay [4], in assay [5] and in assay [6] was more than 100 µM each time. In addition, the TGI in [7], in [8], in assay [9], in assay [10], in assay [11] and in assay [15] was more than 100 µM each time. Moreover, the TGI in [12] and in assay [13] was more than 100 µM throughout.
As to `COc1ccccc1N1CCN(CCCN2/C(=C(\O)c3ccccc3)C(=O)c3c(C)cc(C)nc3S2(=O)=O)CC1`, the TGI in assay [1], in assay [2], in [3], in assay [4], in assay [5] and in assay [6] was more than 100 µM in each case. Also, the TGI in assay [7], in assay [8], in [9], in assay [10], in assay [11] and in assay [15] was more than 100 µM in each case. The TGI in assay [12] and in [13] was more than 100 µM each time.
Regarding `O=C(O)[C@@H]1CSCN1C(=O)[C@@H]1CCC(=S)N1`, the TGI in assay [1], in [2], in assay [14], in assay [3], in assay [4] and in [5] was more than 100 µM each time. Further, the TGI in [6], in assay [7], in assay [9], in assay [10], in [11] and in [15] was more than 100 µM in each case. Further, the TGI in assay [12] and in assay [13] was more than 100 µM each time.
On to `CC12CCC([C@H](C(O)C3CCCCC3)C1=O)C2(C)C` (some centres undefined), for which the TGI in assay [2], in [14], in assay [3], in [4], in assay [6] and in [7] was more than 100 µM throughout. For the same compound, the TGI in assay [8], in [9], in assay [10], in assay [11], in assay [15] and in assay [12] was more than 100 µM throughout. The TGI in [13] was more than 100 µM.
For the compound `O=C(O)Cc1cccc2c1OC(c1ccccc1)C(Cl)(C(=O)c1ccccc1)C2=O` (centres undefined), the TGI in [1] stood at 86 µM; in assay [2] it was 31.6 µM; in [14], 26.1 µM; in [3] it was 28.8 µM; in assay [4] it was 99.6 µM; in [5], 30 µM. Moreover, the TGI in [6] was found to be 30.6 µM; in assay [7], 29 µM; in [10], 65.2 µM; in [11], 66.3 µM; in assay [15], 26.2 µM; in assay [12], 60.6 µM. Moreover, the TGI in assay [13] came to 31.9 µM.
As to `NNc1nncc2n[nH]nc12`, the TGI in [1], in assay [2], in [3], in assay [4], in assay [5] and in [6] was more than 100 µM in each case. Moreover, the TGI in assay [7], in assay [9], in assay [10], in [11], in assay [15] and in assay [12] was more than 100 µM each time. In addition, the TGI in assay [13] is more than 100 µM.
With `COc1ccc(N2C(=O)C3ON(C(C(N)=O)c4ccccc4)C(c4cc5ccccc5c5ccccc45)C3C2=O)cc1` (centres undefined), the TGI in assay [1] was more than 50 µM; in [2], 18.5 µM; in assay [3], more than 50 µM; in assay [4], more than 50 µM; in [5], more than 50 µM; in assay [6], more than 50 µM. In addition, the TGI in [7] was 35.6 µM; in assay [8] it was more than 50 µM; in [9], more than 50 µM; in [10], more than 50 µM; in [11], more than 50 µM; in assay [15], more than 50 µM. For the same compound, the TGI in assay [12] was more than 50 µM; in [13], 34.5 µM.
For the compound `CC1ON2CCCC2[C@H]1C(=O)N1C2CC3CCC2(CS1(=O)=O)C3(C)C` (some centres undefined), the TGI in assay [1], in [2], in assay [3], in [4], in assay [5] and in assay [6] was more than 100 µM throughout. Moreover, the TGI in assay [7], in assay [8], in assay [9], in assay [10], in assay [11] and in assay [15] was more than 100 µM in each case. Besides, the TGI in [12] and in [13] was more than 100 µM each time.
Regarding `O=C1N[C@@H](c2c[nH]c3cc(Br)ccc23)C(=O)N[C@H]1c1c[nH]c2cc(Br)ccc12`, the TGI in assay [1], in assay [14], in [3], in assay [4], in assay [5] and in [6] was more than 100 µM in each case. In addition, the TGI in [7], in [8], in assay [9], in assay [10], in assay [11] and in [15] was more than 100 µM throughout. Also, the TGI in assay [12] and in assay [13] was more than 100 µM throughout.
Consider `COC(=O)C1=C(C(=O)OC)c2cc(OC)ccc2C(C(=S)N(C)C)S1` (centres undefined), for which the TGI in assay [1], in assay [2], in [14], in [3], in assay [4] and in assay [6] was more than 100 µM throughout. In addition, the TGI in assay [7], in assay [8], in assay [9], in assay [10], in assay [11] and in assay [15] was more than 100 µM throughout. Also, the TGI in assay [12] and in [13] was more than 100 µM each time.
Regarding `O=c1oc2cc(O)ccc2c(O)c1C(c1ccccc1F)c1c(O)c2ccc(O)cc2oc1=O`, the TGI in assay [1], in assay [2], in assay [14], in [3], in assay [4] and in [5] was more than 100 µM throughout. For the same compound, the TGI in [6], in [7], in assay [9], in assay [10], in assay [11] and in assay [15] was more than 100 µM each time. Besides, the TGI in assay [12] and in assay [13] was more than 100 µM in each case.
As for `CCn1c(SCC(=O)NNC(=S)Nc2ccc(C)cc2)nc2ccccc2c1=O`, the TGI in assay [1], in assay [14], in assay [3], in assay [4], in assay [5] and in [6] was more than 100 µM in each case. Further, the TGI in assay [7], in [8], in [9], in [10], in assay [11] and in assay [15] was more than 100 µM each time. Moreover, the TGI was more than 100 µM in assay [12] and 55.3 µM in [13].
